Common to all, as to assay type: binding
Test [1] has as its target T1, GH6-1; endoglucanase from Thermobifida fusca (Thermobifida fusca, UniProt P26222).
T1 construct: gene celB; gift of David Wilson; amine-coupled to CM5 chip
The test can be described thus: SPR (Biacore T100), enzyme amine-coupled to CM5 chip. Conditions: one-site fit; immobilised enzyme. The text has this: SPR (Biacore T100), enzyme amine-coupled to CM5 chip on GH6-1; endoglucanase from Thermobifida fusca

Test [2] concerns the target T2, GH8-1; endoglucanase from Clostridium thermocellum (Acetivibrio thermocellus, UniProt A3DC29).
T2 construct: gene celA; commercial recombinant (NZYtech), no CBM; amine-coupled to CM5 chip
T2 sequence (A3DC29 33-477): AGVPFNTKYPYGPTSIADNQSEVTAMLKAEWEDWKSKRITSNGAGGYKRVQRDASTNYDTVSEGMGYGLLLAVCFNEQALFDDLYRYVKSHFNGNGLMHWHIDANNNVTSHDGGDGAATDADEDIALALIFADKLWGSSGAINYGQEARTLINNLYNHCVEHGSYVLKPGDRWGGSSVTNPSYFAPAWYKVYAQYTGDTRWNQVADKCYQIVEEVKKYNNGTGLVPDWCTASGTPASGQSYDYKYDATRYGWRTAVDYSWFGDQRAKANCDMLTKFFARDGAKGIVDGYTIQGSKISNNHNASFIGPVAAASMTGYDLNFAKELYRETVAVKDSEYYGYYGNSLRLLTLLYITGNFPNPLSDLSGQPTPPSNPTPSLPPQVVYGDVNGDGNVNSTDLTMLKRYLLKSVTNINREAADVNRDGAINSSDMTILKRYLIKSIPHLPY
The test is described as above. Conditions: one-site fit; immobilised enzyme; stoichiometry above 2 (several sites). The text has this:
SPR (Biacore T100), enzyme amine-coupled to CM5 chip on GH8-1; endoglucanase from Clostridium thermocellum

Test [3] concerns the target T3, GH48-1; processive endoglucanase from Clostridium cellulolyticum (Ruminiclostridium cellulolyticum, UniProt P37698).
T3 construct: gene celCCF; commercial recombinant (NZYtech), no CBM; amine-coupled to CM5 chip
T3 sequence (P37698 30-650 limits assumed): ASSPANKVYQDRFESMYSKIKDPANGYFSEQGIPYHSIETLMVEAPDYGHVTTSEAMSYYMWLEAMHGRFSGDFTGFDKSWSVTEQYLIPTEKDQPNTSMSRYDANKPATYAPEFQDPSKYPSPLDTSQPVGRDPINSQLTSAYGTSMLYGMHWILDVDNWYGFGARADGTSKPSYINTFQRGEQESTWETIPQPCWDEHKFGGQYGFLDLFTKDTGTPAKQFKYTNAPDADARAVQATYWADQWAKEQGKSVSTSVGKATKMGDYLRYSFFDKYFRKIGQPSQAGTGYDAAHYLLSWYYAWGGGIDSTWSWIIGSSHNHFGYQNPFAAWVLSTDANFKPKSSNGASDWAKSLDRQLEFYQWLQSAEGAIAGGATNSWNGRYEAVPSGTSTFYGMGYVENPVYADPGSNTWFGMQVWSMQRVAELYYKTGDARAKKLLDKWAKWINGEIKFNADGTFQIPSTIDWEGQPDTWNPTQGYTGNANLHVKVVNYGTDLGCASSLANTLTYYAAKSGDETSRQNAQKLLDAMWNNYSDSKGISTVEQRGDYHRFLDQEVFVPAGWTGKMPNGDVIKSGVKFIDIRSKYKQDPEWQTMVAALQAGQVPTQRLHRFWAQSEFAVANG
The description is as above. The settings on record: one-site fit; immobilised enzyme. The text has this:
SPR (Biacore T100), enzyme amine-coupled to CM5 chip on GH48-1; processive endoglucanase from Clostridium cellulolyticum

The target in test [4] is T4, GH13-6; pig pancreatic α-amylase (Sus scrofa, UniProt P00690).
T4 construct: gene AMY2; native porcine pancreas enzyme from Sigma; biotinylated, on streptavidin chip
T4 sequence (P00690 16-511): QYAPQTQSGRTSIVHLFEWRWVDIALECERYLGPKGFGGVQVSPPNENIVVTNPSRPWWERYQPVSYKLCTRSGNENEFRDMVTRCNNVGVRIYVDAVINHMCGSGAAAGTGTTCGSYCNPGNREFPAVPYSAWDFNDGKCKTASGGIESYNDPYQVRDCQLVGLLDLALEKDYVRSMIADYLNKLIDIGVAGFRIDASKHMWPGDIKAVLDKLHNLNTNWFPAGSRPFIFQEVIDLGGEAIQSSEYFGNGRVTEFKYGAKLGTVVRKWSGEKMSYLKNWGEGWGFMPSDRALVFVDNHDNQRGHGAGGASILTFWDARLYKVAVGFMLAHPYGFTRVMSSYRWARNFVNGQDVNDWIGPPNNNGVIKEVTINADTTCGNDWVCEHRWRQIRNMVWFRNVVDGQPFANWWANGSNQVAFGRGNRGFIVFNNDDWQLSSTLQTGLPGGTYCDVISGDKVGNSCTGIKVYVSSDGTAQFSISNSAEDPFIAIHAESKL
The test can be described thus: SPR (Biacore T100), biotinylated enzyme on streptavidin chip. The text has this: SPR (Biacore T100), biotinylated enzyme on streptavidin chip on GH13-6; pig pancreatic α-amylase
(Surface plasmon resonance follows binding to a sensor surface in real time, without labels.)

The target in test [5] is T2, GH8-1; endoglucanase from Clostridium thermocellum. The test can be described thus: SPR (Biacore T100), enzyme amine-coupled to CM5 chip. Conditions: immobilised enzyme; ligand 10-5000 μM; weak, not saturable.
Test [6] has as its target T5, GH13-5; pullulanase from Bacillus subtilis (Bacillus subtilis, UniProt C0SPA0).
T5 construct: gene amyX; commercial recombinant (Prozomix); contains CBM48; biotinylated, on streptavidin chip
T5 sequence (C0SPA0 1-718): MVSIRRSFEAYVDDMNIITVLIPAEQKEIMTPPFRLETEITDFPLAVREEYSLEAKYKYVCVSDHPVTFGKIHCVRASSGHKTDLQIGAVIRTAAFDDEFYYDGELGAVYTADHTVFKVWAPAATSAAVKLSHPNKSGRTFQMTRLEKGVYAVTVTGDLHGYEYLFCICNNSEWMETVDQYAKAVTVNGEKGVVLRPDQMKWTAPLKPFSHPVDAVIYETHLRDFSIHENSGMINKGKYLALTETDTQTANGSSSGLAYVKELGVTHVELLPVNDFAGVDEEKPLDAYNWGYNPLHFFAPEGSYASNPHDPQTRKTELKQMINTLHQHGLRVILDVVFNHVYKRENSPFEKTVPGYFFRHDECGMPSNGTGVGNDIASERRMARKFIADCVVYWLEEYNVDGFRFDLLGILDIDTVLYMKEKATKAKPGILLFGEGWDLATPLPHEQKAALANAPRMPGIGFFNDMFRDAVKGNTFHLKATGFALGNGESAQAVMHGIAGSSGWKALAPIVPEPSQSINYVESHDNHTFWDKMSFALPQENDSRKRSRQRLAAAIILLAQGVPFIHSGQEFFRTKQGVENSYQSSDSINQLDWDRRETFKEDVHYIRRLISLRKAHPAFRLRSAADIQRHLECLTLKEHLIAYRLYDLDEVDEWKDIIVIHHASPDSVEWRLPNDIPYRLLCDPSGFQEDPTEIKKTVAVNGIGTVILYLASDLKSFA
The test can be described thus: SPR (Biacore T100), biotinylated enzyme on streptavidin chip. The source says: SPR (Biacore T100), biotinylated enzyme on streptavidin chip on GH13-5; pullulanase from Bacillus subtilis

The target of test [7] is T6, GH13-3; E. coli α-amylase (Escherichia coli, UniProt P26612).
T6 construct: gene amyA; commercial recombinant (Prozomix); biotinylated, on streptavidin chip; GH13 subfamily 5 implied by homology to Bacillus sp
T6 sequence (P26612 1-495): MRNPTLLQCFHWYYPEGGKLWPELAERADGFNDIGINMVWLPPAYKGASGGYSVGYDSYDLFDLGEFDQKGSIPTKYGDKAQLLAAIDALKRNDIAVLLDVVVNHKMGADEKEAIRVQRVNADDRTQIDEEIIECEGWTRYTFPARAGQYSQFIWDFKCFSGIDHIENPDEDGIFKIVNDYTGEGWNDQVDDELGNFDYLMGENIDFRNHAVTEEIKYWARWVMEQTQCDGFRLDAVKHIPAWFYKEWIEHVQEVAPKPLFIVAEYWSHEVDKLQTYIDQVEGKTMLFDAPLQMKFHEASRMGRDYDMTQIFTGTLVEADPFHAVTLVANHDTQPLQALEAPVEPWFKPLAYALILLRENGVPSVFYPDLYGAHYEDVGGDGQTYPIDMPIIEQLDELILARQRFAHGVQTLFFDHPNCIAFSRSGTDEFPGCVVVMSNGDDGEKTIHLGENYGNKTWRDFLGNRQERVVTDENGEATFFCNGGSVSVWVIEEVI
Described as above. The source says: SPR (Biacore T100), biotinylated enzyme on streptavidin chip on GH13-3; E. coli α-amylase

Read-outs that look alike come from different tables or passages of the source.

T1 sequence (P26222 32-322 limits assumed): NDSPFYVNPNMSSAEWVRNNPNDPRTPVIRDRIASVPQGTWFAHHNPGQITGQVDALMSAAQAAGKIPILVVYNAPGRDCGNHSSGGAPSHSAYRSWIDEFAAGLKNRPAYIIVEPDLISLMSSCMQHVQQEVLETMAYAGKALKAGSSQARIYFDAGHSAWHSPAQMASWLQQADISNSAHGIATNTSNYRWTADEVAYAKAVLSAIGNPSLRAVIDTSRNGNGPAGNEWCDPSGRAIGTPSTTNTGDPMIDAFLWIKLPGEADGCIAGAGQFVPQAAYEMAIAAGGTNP

As to `OC[C@H]1O[C@@H](O[C@H]2[C@H](O)[C@@H](O)[C@H](O[C@H]3[C@H](O)[C@@H](O)[C@H](O[C@H]4[C@H](O)[C@@H](O)[C@H](O[C@H]5[C@H](O)[C@@H](O)C(O)O[C@@H]5CO)O[C@@H]4CO)O[C@@H]3CO)O[C@@H]2CO)[C@H](O)[C@@H](O)[C@@H]1O` (stereo partly drawn) [cellopentaose], the Kd in test [1] is 330 ± 110 µM; in test [2], 860 ± 90 µM; in test [3], 2070 ± 780 µM. In test [4] (one-site fit, immobilised enzyme, stoichiometry above 1 (several sites)), `OC[C@H]1O[C@H](O[C@H]2[C@H](O)[C@@H](O)[C@@H](O[C@H]3[C@H](O)[C@@H](O)[C@@H](O[C@H]4[C@H](O)[C@@H](O)[C@@H](O[C@H]5[C@H](O)[C@@H](O)[C@@H](O[C@H]6[C@H](O)[C@@H](O)C(O)O[C@@H]6CO)O[C@@H]5CO)O[C@@H]4CO)O[C@@H]3CO)O[C@@H]2CO)[C@H](O)[C@@H](O)[C@@H]1O` (stereo partly drawn) [maltohexaose] showed a Kd of 1330 ± 120 µM. As for `OC[C@H]1O[C@H](O[C@H]2[C@H](O)[C@@H](O)[C@@H](O[C@H]3[C@H](O)[C@@H](O)[C@@H](O[C@H]4[C@H](O)[C@@H](O)C(O)O[C@@H]4CO)O[C@@H]3CO)O[C@@H]2CO)[C@H](O)[C@@H](O)[C@@H]1O` (stereo partly drawn) [maltotetraose], the NS entry in test [5] is given as “GH8-1 interacts weakly with these oligosaccharides”. The same measure, in the same setting: the value for `OC1OC[C@@H](O[C@@H]2OC[C@@H](O[C@@H]3OC[C@@H](O[C@@H]4OC[C@@H](O)[C@H](O)[C@H]4O)[C@H](O)[C@H]3O)[C@H](O)[C@H]2O)[C@H](O)[C@H]1O` (stereo partly drawn) [xylotetraose] was “GH8-1 interacts weakly with these oligosaccharides”. `OC[C@H]1O[C@@H]2O[C@H]3[C@H](O)[C@@H](O)[C@@H](O[C@H]4[C@H](O)[C@@H](O)[C@@H](O[C@H]5[C@H](O)[C@@H](O)[C@@H](O[C@H]6[C@H](O)[C@@H](O)[C@@H](O[C@H]7[C@H](O)[C@@H](O)[C@@H](O[C@H]8[C@H](O)[C@@H](O)[C@@H](O[C@H]1[C@H](O)[C@H]2O)O[C@@H]8CO)O[C@@H]7CO)O[C@@H]6CO)O[C@@H]5CO)O[C@@H]4CO)O[C@@H]3CO` [β-cyclodextrin]: the Kd came out at 970 ± 130 µM in test [6], 1360 ± 50 µM in test [7] and 870 ± 400 µM in test [4].

In general, Kd refers to the equilibrium constant for the complex coming apart. Lower therefore signals tighter binding.

(Values after article PMC4978508, “Using Carbohydrate Interaction Assays to Reveal Novel Binding Sites in Carbohydrate Active Enzymes” (PLoS ONE, 2016).)
